# Where two headings read alike, the source gives them in different places.
# Legend:
# [1] = molecular target: T1, human sGC α subunit and β subunit (Homo sapiens, UniProt Q02153); assay: Maximum effect of sGC activating function (Ca2+ fluorescence in CHO-K1 cells expressing human sGC and mouse CNGA2); type: cell-based; details: increase ratio of sGC activity vs control solution at 10 μmol/L test compound
# T1 construct: expressed in transfected cells
# T1 sequence (Q02153 1-619): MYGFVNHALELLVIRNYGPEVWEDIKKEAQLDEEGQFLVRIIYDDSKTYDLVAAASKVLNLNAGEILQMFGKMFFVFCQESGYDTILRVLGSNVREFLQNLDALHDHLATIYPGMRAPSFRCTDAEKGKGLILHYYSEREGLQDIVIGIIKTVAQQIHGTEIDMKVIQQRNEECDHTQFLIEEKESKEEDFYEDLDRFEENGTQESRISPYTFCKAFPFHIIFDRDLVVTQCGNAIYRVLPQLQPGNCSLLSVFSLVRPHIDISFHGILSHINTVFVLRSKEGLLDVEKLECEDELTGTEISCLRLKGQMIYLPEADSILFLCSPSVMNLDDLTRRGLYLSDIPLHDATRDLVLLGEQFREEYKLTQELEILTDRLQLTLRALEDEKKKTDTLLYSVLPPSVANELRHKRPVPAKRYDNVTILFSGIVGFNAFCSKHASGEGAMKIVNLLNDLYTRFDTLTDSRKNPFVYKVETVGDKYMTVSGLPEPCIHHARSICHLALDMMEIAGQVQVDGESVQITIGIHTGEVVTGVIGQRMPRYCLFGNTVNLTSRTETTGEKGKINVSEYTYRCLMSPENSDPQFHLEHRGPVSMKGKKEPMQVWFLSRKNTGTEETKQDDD
# T1 sequence (Q02108 1-690 partner): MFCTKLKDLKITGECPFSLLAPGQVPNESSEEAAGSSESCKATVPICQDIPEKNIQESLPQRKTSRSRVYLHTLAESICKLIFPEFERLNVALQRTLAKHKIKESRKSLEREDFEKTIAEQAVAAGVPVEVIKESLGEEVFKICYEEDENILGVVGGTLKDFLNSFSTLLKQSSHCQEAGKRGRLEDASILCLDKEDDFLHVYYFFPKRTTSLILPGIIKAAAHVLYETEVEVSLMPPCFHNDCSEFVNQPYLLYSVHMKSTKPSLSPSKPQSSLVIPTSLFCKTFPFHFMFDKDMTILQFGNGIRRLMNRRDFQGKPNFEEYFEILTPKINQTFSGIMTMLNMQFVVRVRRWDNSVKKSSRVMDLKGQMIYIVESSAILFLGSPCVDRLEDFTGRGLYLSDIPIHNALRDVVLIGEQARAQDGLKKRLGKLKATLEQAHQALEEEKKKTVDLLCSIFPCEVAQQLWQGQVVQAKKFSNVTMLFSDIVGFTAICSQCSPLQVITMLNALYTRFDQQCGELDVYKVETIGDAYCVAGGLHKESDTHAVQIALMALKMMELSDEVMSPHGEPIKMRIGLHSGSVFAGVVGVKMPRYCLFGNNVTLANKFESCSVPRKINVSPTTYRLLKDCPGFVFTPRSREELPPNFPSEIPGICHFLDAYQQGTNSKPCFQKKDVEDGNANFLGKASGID
# Protocol: For the assay, Chinese hamster ovary cells (CHO-K1 cells) in which human sGC α subunit and β subunit and mouse cyclic nucleotide gated channel (CNGA2) are stably expressed were used.
# CHO-K1 cells in which human sGC and mouse CNGA2 are stably expressed were cultured at 37° C. in F-12 medium containing 10% (v/v) fetal bovine serum (FBS), penicillin (100 U/mL), streptomycin (100 μg/mL), G418 (250 μg/mL), and zeocin (250 μg/mL). The cells were suspended in the culture medium and seeded onto a 96-well plate, and then cultured at 37° C. for 24 hours. After washing with assay buffer 1 (140 mmol/L sodium chloride, 5 mmol/L potassium chloride, 0.5 mmol/L magnesium chloride, 0.01 mmol/L calcium chloride, 10 mmol/L glucose, 0.4 mmol/L magnesium sulfate, 10 mmol/L 4-(2-hydroxyethyl)piperazin-1-ylethane sulfonic acid, and 125 μmol/L sulfinpyrazone, pH 7.4), an indicator solution in which FURA2-AM as a fluorescent Ca^2+ indicator is dissolved at concentration of 5 μmol/L in assay buffer 1 was added followed by culture for 60 minutes at 37° C. The indicator solution was removed. After washing with assay buffer 1, the test compound solution was added and incubated for 10 minutes at room temperature. The plate was placed in a fluorometer (Flex Station II, Molecular Devices, LLC), and then the intracellular calcium concentration was measured as fluorescence intensity ratio which is obtained from each excitation wavelength (excitation wavelength of 340 nm and 380 nm and detection wavelength of 510 nm).
# The test compound solution was prepared by dissolving each of the test compounds in DMSO to a concentration of 10 mmol/L, and then adding the assay buffer 2 (140 mmol/L sodium chloride, 5 mmol/L potassium chloride, 0.5 mmol/L magnesium chloride, 1 mmol/L calcium chloride, 10 mmol/L glucose, 0.4 mmol/L magnesium sulfate, 10 mmol/L 4-(2-hydroxyethyl)piperazin-1-ylethane sulfonic acid, 125 μmol/L sulfinpyrazone, 100 μmol/L isobutylmethylxanthine, 10 μmol/L 1H-[1,2,4]-oxadiazole[4,3-a]quinoxalin-1-one (hereinbelow, ODQ), pH 7.4) for dilution to have test concentration of 10 μmol/L. For the evaluation of a case in which ODQ is not contained, the same evaluation was performed except that ODQ is excluded from assay buffer 2. As a control solution, a DMSO solution was used instead of the test compound solution.
# The activity of the test compound corresponds to the increase ratio (%) of the sGC activity at the time of adding the test compound solution with respect to the sGC activity at the time of adding the control solution, and it was calculated by dividing the fluorescence intensity ratio at the time of adding the test compound by the fluorescence intensity ratio of the control solution and subtracting the sGC activity (100%) at the time of adding the control solution.
# In this assay, intracellular cGMP concentration increases as sGC is activated, and according to opening of CNGA2 following the increase of cGMP, intracellular Ca^2+ concentration increases. Thus, SGC activation can be measured by following the change in intracellular Ca^2+ concentration. […] Thus, in the absence of ODQ, the maximum sGC activating function including the heme-dependent activation can be evaluated while the heme-independent sGC activating function can be evaluated in the presence of ODQ.
# [2] = tested on: abdominal aorta ring specimen; assay: Evaluation of blood vessel relaxing function (phenylephrine-contracted abdominal aorta ring); details: relaxation of rat abdominal aorta contracted with 1 μmol/L phenylephrine; without vs with 10 μmol/L ODQ
# Protocol: The representative compounds of the present invention were evaluated by blood vessel relaxing function according to the following Test Example. In the assay, bleeding from the upper part of a heart of a rat (male, SD) was performed under anesthesia with pentobarbital (30 mg/kg) and then abdominal aorta was extracted. The connecting tissue adhered around blood vessel was removed from the abdominal aorta in an ice-cooled Krebs-Henseleit solution (KH solution) (118 mmol/L sodium chloride, 4.7 mmol/L potassium chloride, 1.2 mmol/L magnesium sulfate, 1.2 mmol/L potassium dihydrogen phosphate, 25 mmol/L sodium hydrogen carbonate, 2.5 mmol/L calcium chloride, and 10 mmol/L glucose, pH 7.4). After that, a ring specimen with length of 2 mm was prepared and fixed in 5 mL organ bath filled with a KH solution. The KH solution was kept at 37° C. and aerated with a mixture gas of 95% O2 and 5% CO2. The specimen was stabilized for 1 hour with static tension of 1 g. The KH solution was exchanged twice during that time. The tension on the specimen was recorded on a multi-channel recorder via pickup and amplifier. After the stabilization of the specimen, contraction was caused by using 1 μmol/L phenylephrine (Phe), and cumulative administration of each compound (0.001, 0.01, 0.03, 0.1, 0.3, 1, 3, 10, 30, 100, 1000, 10000 nmol/L) was performed. For the evaluation of a case in which 1H-1,2,4-oxadiazole-(4,3a)-quinoxalin-1-one (ODQ) is contained, 10 μmol/L ODQ was added 10 minutes before the Phe addition, and the same evaluation as above was performed.
# EC50 value was calculated using four-parameter logistics model using Assay Explorer (Accelrys). The test compound solution was dissolved in DMSO such that the concentration of each test compound is 1000 times the final concentration.
smiles,measurement,setting,value
"O=C(O)CCCCN(CCc1ccccc1OCc1ccc(C2CC2)cc1)C1CCCc2cc(C(=O)O)ccc21 (stereo not drawn) [Example 42, 5-{N-(4-Carboxybutyl)-N-[2-[2-(4-cyclopropylbenzyloxy)phenyl]ethyl]amino}-5,6,7,8-tetrahydronaphthalene-2-carboxylic acid]",Emax at 10 µM,"[1]; ODQ not contained, read-out: Emax (%) ODQ− (Heme-dependent)",86.7%
same,Emax at 10 µM,"[1]; with 10 μmol/L ODQ, read-out: Emax (%) ODQ+ (Heme-independent)",122%
same,EC50 Ratio (ODQ−/ODQ+),[2],4.3

# Source: patent US9290440B2, “Bicyclic compound” (TOA EIYO LTD., priority 2012, dated 2016)
